The test system of one assay is M-1 rhabdomycoscercoma. The assay is described as follows: In vivo photosensitization, M-1 rhabdomyosarcoma system in DBA/J2 mice. On the procedure: Studies of potential photosensitizers were performed using the M-1 rhabdomycoscercoma system in DBA/J2 mice. The compositions to be tested were diluted to a concentration of […] in PBS from a stock solution in DMSO at 8 mg/ml (except Photofrin® II, which was diluted directly from the clinical vial). […]

Assay [1] concerns human erythrocytes (RBCS). The experiment in a line: In vitro photosensitization: hemolysis of human erythrocytes after irradiation. The class given is cell-based. Particulars: Erythrocyte, 0.5 h, light 300-750 nm, 30 minutes, read-out: concentration required to obtain 50% hemolysis. As to the method: (§1) Target cells were washed three times in serum-free medium (DME), counted and made up to a concentration of 10^7 cells per ml.
(§2) For the "affinity" assay, in the dark, 100 μl of the target cell suspension and 100 μl of the test or control compound were mixed. "Labeling" was allowed to continue for one hour at 4° C., and labeled cells were washed in the dark three times with 3 ml medium each time and resuspended in fresh medium. The resuspended cells were then subjected to light exposure at 300-750 nanometers for 30 minutes.
When human erythrocytes (RBCS) were used as target cells, the hemolysis caused by irradiation of control (hematoporphyrin, Hp) labeled and green porphyrin (Gp) labeled cells were estimated visually. The Gp used in this Example was the BPD-DB of FIG. 2 wherein R^1 and R^2 are carboethoxy. […] Thus, a concentration of 250 ng/ml Hp was required under the above conditions to obtain 50% hemolysis while only 10 ng/ml of green porphyrin was required to hemolyze 50% of the RBCs.

A further assay deals with Normal lymphocytes. The assay is described as follows: In vitro photosensitization, kill of normal lymphocytes. The following applies: Lymphocyte, read-out: LD50 (the source's name). The class given is cell-based. As to the method: as §1, §2
(§3) In a "direct" assay the target cells were irradiated immediately upon addition of the test or control compound.
(§4) The effect of irradiation was estimated using methods appropriate to the target cells.
(§5) The results of each determination on a variety of cells is shown in Table 1 (LD50 in the concentration of compound required to kill 50% of the cell population.)

The test system of a further assay is HL-60. The assay is described as follows: In vitro photosensitization, kill of HL-60 cells. The following applies: Homo sapiens, read-out: LD50 (the source's name). It counts as cell-based. As to the method:
as §1, §2, §3, §4, §5

For the next assay, the system named is K562. The assay is described as follows: In vitro photosensitization, kill of K562 cells. It counts as cell-based. The following applies: Homo sapiens, read-out: LD50 (the source's name). On the procedure:
as §1, §2, §3, §4, §5

Another assay has as its system KG-1. The experiment in a line: In vitro photosensitization, kill of KG-1 cells. It counts as cell-based. The following applies: Homo sapiens, read-out: LD50 (the source's name). As to the method:
as §1, §2, §3, §4, §5

The subject of assay [2] is murine mastocytoma cell line P815. The assay is described as follows: In vitro photosensitization, kill of P815 cells. The class given is cell-based. Particulars: Mus musculus; for IC50: P815, read-out: LD50 (the source's name). On the procedure: as §1, §2, §3
When the murine mastocytoma cell line P815 was used, the results were determined as follows:
The cells were labeled as above using concentration of 10-50 ng/ml of Hp as control and the BPD-DB as the test substance. The resuspended cells were treated with 300-750 nm light for 30 minutes and the viability resulting was estimated by direct counting using eosin-Y exclusion, a standard procedure for differentiating living from dead cells.
In other determinations conducted as above, the cells recovered from light exposure were assayed for viability by incubating them for 18 hours in 10 μCi/ml tritium-labeled thymidine according to the standard procedure whereby thymidine incorporation is equated with viability. The cells were harvested and radioactivity uptake was measured by a scintillation counter.
as §5

Another assay relates to P815 cells. The assay is described as follows: Selective binding of green porphyrin: kill of labeled P815 cells. It counts as cell-based, murine. Particulars: Mus musculus, P815, 0.5 h; labeled in dark 30 minutes, washed, 300-750 nm light 30 minutes; read-out: concentration at which 50% of the P815 cells were destroyed. As to the method: P815 cells were incubated as described in Example 1 using 1-200 ng/ml Hp or Gp. The Gp was BPD-DB of FIG. 2 wherein R^1 and R^2 are carboethoxy. The cells were labeled in the dark for 30 minutes, washed free of unabsorbed porphyrins, resuspended, and then exposed to 300-750 nm light for another 30 minutes. Viability of the cells was established by tritiated thymidine incorporation after labeling with 20 μCi/ml tritiated thymidine and incubating at 37° C. for 18 hours.

A further assay relates to P815 tumors. The assay is described as follows: In vivo cytotoxicity of immunoconjugates, P815 tumor-bearing DBA/2 mice.

The structures appear in SMILES notation. In brackets after ≈: the same amount, converted by molar mass. Read-outs that look alike come from different tables or passages of the source.

Experimental for P815 tumors: The in vivo test relies on the indirect effect of a population of T-suppressor cells on tumors, which then serve as means to assess the effectiveness of the irradiation treatment. P815 mastocytoma cells grown in syngeneic DBA/2 mice stimulate T-suppressor cells specific for the tumor. These T-suppressor cells impede the development of specific T-killer cells which would otherwise aid in the regression of the tumor.
Therefore, in this assay, DBA/2 mice are injected in the right flank subcutaneously with 10^4 P815 cells to incorporate the tumor. On day eight, when the tumors are palpable (approx. 25-42 sq mm) the mice are randomly sorted into groups of eight and injected IV with 150 μl PBS containing nothing, Hp or Gp, B16G-Hp or B16G-Gp, B16G plus either drug, B16G alone or C-MAbHp or C-MAb-Gp. The levels of Hp are 50 Mg per animal in all cases and B16G 310 μg in all cases (where appropriate).
The animals are maintained in the dark for two hours and then exposed to strong light at 300-750 nm and 22.5 mW/cm^2. The animals were then treated normally and monitored on a daily basis.

For the compound `C=Cc1c(C)c2cc3nc(cc4[nH]c(cc5nc(cc1[nH]2)C1(C)C5=CC=C(C(=O)OC)C1C(=O)OC)c(C)c4CCC(=O)O)C(CCC(=O)O)=C3C` (centres unmarked) [BPD-DB], the “Number of Days Tumor Free (PR)” value in the assay on M-1 rhabdomycoscercoma (Table 6, 567 Jo/cm^2, IV 24 h before light) worked out at 10.6 days. For the same compound, in the assay with M-1 rhabdomycoscercoma (Table 6, 567 Jo/cm^2, 8 animals per group), the “Cures (tumor regressed and tumor-free for 30 days)” value is on record as 3. Further, the “Days Tumor-free” value in the assay with M-1 rhabdomycoscercoma (Table 7, light dose 378 To/cm^3) came to 13.0 days. In addition, the “Number of Cures” value with M-1 rhabdomycoscercoma (Table 7, light dose 378 To/cm^3, 9-15 animals) was found to be 8.
Take `CC1=C(CCC(=O)O)c2cc3[nH]c(cc4nc(cc5[nH]c(cc1n2)c(C)c5C(C)O)C(C)=C4C(C)O)c(C)c3CCC(=O)O` (centres unmarked) [Hp, hematoporphyrin, reference compound]: the EC50 is 0.25 µg/mL in assay [1]; 0.58 µg/mL in assay [2] (P815, 0.5 h, 300-750 nm light for 30 minutes, read-out: concentration at which fifty percent of the P815 cells were killed); 0.2 µg/mL (≈ 0.334 µM) in the assay with P815 cells. Besides, the IC50 with Normal lymphocytes (Affinity test) worked out at 0.1 µg/mL; in the assay on Normal lymphocytes (Direct test), 0.031 µg/mL; with HL-60 (HL-60, Affinity test) it was 0.145 µg/mL; in the assay on HL-60 (HL-60, Direct test) it was 0.064 µg/mL; in the assay with K562 (K562, Affinity test), 2.5 µg/mL; in the assay with K562 (K562, Direct test) it was 0.77 µg/mL. The IC50 in the assay with KG-1 (KG-1, Affinity test) came out at 2.35 µg/mL; in the assay with KG-1 (KG-1, Direct test), 0.96 µg/mL; in assay [2] (P815, Affinity test), 1.3 µg/mL; in assay [2] (P815, Direct test), 0.58 µg/mL. Besides, the “% tumor-free after 100 (days)” value in the assay on P815 tumors (Experiment 2), in the assay with P815 tumors (Experiment 3), in the assay on P815 tumors (Experiment 4) and in the assay on P815 tumors (Experiment 5) was 0% each time. Also, the Mean survival time with P815 tumors (Experiment 2) is 21.0 days; in the assay with P815 tumors (Experiment 3) it was 23.4 days; in the assay with P815 tumors (Experiment 4), 24.2 days; in the assay on P815 tumors (Experiment 5) it was 27.0 days. Also, the No. of cures with P815 tumors (Experiment 2) is 0/8; in the assay on P815 tumors (Experiment 3), 0/7; with P815 tumors (Experiment 4), 0/8; in the assay with P815 tumors (Experiment 5), 0/8.

Source of the values: patent US5283255A, “Wavelength-specific cytotoxic agents” (The University of British Columbia, priority 1992, dated 1994).
